Data published in US20160272645A1, “Heterocyclic Compounds and Methods of Use” (MEDIVATION TECHNOLOGIES, INC., priority 2013, published 2016).

What was measured:
Format in all cases: biochemical
PI3Kδ [1] = biological target: T1, PI3Kδ (Homo sapiens, UniProt O00329); test: PI3Kδ kinase profiling, HTRF PIP3 displacement assay (Reaction Biology); details: for inhibition at 1 µM: compound 1 μM, ATP 10 μM, read-out: PI3Kδ @ 1 μM (% Inh)
T1 construct: purchased Reaction Biology Corporation
Text: (§1) Compounds of the invention were profiled in a 10 dose IC50 panel against BTK and PI3Kδ, both provided by Reaction Biology Corporation.
(§2) PI3Kδ assay: The PIP3 product is detected by displacement of biotin-PIP3 from an energy transfer complex consisting of Europium labeled anti-GST monoclonal antibody, a GST-tagged pleckstrin homology (PH) domain, biotinylated PIP3 and Streptavidin-Allophycocyanin (APC). Excitation of Europium in the complex results in an energy transfer to the APC and a fluorescent emission at 665 nm. The PIP3 product formed by PI3-Kinase (h) activity displaces biotin-PIP3 from the complex resulting in a loss of energy transfer and thus a decrease in signal. This is a 3-step reaction: First, the kinase reaction with PIP2 substrate is carried out in the presence of ATP (10 μM), and the reaction is quenched with stop Solution, and then finally detect by adding Detection Mixture followed by incubation (10 min). Reaction procedure: 1) Prepare substrate in freshly prepared Reaction Buffer. 2) Deliver kinase into the substrate solution and gently mix. 3) Deliver compounds in 100% DMSO (1 μM) into the kinase reaction mixture by Acoustic technology (Echo550; nanoliter range), incubate for 10 min at RT. 4) Deliver ATP into the reaction mixture to initiate the reaction. 5) Incubate for 30 min at 30° C. 6) Quench the reaction with Stop Solution. 7) Add Detection Mixture, and incubate for overnight. 8) Measure HTRF: Ex=320 nm, ratio of Em=615 nm and Em=665 nm. The emission ratio is converted into μM PIP3 production based on PIP3 standard curves. The nonlinear regression to obtain the standard curve and IC50 values are performed using Graphpad Prism software. Assay Buffer: HEPES 50 mM (pH7.0), NaN3 0.02%, BSA 0.01%, Orthovanadate 0.1 mM, 1% DMSO. Detection buffer: HEPES 10 mM (pH7.0), BSA 0.02%, KF 0.16 M, EDTA 4 mM. Substrate: 10 μM PIP2 substrate (PI(4,5)P2).

PI3Kβ = biological target: T2, PI3Kβ (Homo sapiens, UniProt P42338); test: PI3K isoform profiling, PI3Kβ (PI3Kδ protocol); details: for inhibition at 0.3 µM: compound 0.3 μM, read-out: PI3Kβ @ 0.3 μM (% Inh); for IC50: 10 dose IC50
T2 construct: purchased Reaction Biology Corporation
T2 sequence (P42338 whole entry, canonical isoform): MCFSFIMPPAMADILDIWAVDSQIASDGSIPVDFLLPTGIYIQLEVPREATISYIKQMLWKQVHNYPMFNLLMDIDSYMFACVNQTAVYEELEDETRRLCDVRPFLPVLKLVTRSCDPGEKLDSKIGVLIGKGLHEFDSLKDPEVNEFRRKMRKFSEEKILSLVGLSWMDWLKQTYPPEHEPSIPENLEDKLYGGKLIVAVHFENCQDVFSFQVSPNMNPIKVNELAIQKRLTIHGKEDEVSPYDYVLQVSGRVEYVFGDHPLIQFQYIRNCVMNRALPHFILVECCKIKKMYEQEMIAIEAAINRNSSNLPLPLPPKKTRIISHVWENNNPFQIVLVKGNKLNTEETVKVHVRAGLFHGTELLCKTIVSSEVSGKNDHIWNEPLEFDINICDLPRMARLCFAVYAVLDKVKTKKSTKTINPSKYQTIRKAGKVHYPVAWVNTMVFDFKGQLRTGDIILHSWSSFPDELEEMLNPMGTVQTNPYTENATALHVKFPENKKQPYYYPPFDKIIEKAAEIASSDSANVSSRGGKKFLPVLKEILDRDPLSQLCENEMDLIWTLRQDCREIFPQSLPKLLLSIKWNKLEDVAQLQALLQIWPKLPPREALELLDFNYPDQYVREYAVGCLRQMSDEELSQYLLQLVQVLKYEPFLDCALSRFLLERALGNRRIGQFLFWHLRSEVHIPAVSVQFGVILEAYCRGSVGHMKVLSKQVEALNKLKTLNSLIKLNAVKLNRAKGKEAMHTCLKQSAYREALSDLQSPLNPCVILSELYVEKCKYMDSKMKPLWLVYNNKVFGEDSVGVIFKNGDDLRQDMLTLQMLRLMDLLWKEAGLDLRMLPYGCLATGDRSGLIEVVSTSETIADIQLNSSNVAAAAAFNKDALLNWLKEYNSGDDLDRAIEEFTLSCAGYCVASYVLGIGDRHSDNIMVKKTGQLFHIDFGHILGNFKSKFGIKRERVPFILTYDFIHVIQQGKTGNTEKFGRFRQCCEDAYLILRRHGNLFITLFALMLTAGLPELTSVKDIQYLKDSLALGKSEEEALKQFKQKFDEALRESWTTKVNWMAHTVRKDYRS
T2 sequence (P27986 whole entry partner, canonical isoform): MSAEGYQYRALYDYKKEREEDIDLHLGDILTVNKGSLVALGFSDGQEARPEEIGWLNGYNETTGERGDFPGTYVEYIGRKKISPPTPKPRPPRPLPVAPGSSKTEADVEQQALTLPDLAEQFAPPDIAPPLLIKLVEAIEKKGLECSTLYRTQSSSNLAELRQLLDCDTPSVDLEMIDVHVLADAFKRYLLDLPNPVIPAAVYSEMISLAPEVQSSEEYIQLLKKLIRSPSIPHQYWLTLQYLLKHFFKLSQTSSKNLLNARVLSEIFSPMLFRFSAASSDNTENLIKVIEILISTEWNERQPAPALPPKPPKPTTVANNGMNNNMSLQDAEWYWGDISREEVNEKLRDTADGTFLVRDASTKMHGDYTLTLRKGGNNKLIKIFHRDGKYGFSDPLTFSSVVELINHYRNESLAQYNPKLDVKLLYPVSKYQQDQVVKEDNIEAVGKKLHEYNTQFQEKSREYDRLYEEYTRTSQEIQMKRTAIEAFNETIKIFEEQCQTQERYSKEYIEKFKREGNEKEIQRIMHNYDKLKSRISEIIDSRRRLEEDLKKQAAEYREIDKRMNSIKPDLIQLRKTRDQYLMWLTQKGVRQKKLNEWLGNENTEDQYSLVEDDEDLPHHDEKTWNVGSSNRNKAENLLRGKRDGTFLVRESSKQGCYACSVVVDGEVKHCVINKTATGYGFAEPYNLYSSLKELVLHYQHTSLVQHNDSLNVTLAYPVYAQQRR
Text: as §2
(§3) Compounds of the invention were profiled in a 10 dose IC50 panel against PI3Kα, PI3Kβ, and PI3Kγ kinases, provided by Reaction Biology Corporation, applied to the PI3Kδ protocol provided in Example B1.

PI3Kγ = biological target: T3, PI3Kγ (Homo sapiens, UniProt P48736); test: PI3K isoform profiling, PI3Kγ (PI3Kδ protocol); details: for inhibition at 0.3 µM: compound 0.3 μM, read-out: PI3Kγ @ 0.3 μM (% Inh); for IC50: 10 dose IC50
T3 construct: purchased Reaction Biology Corporation
T3 sequence (P48736 whole entry, canonical isoform): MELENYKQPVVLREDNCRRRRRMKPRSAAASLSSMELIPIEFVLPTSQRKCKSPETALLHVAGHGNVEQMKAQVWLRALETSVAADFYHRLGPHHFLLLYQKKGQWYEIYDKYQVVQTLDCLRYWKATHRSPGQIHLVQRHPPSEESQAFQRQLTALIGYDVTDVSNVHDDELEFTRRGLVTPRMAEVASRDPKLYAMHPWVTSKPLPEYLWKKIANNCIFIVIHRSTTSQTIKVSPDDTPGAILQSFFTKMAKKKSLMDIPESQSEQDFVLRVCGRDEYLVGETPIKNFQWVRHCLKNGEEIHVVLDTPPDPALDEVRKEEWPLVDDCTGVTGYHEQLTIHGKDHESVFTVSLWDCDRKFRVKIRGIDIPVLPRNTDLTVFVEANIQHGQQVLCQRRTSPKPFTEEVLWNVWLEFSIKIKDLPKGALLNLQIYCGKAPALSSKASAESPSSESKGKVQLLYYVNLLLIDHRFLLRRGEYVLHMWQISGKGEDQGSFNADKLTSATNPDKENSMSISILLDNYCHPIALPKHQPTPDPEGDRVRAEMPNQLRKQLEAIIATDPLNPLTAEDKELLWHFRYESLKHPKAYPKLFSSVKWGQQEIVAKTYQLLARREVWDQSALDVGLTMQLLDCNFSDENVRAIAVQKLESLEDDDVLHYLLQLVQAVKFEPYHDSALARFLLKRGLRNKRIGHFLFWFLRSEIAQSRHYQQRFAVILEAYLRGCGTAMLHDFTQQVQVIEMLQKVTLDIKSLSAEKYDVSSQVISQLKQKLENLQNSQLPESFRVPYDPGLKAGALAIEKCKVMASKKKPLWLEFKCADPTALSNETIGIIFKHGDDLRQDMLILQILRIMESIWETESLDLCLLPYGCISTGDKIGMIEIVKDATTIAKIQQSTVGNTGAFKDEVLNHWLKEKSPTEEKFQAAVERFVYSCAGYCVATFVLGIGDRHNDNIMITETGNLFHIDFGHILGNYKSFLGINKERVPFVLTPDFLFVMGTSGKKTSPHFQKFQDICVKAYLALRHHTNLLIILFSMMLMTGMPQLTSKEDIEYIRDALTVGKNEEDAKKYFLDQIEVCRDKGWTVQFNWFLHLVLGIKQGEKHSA
Text: as §2, §3

ITK = biological target: T4, ITK (Homo sapiens, UniProt Q08881); test: ITK kinase profiling (BTK protocol); details: compound 0.3 μM; read-out: ITK @ 0.3 μM (% Inh)
T4 construct: purchased Reaction Biology Corporation
T4 sequence (Q08881 1-620): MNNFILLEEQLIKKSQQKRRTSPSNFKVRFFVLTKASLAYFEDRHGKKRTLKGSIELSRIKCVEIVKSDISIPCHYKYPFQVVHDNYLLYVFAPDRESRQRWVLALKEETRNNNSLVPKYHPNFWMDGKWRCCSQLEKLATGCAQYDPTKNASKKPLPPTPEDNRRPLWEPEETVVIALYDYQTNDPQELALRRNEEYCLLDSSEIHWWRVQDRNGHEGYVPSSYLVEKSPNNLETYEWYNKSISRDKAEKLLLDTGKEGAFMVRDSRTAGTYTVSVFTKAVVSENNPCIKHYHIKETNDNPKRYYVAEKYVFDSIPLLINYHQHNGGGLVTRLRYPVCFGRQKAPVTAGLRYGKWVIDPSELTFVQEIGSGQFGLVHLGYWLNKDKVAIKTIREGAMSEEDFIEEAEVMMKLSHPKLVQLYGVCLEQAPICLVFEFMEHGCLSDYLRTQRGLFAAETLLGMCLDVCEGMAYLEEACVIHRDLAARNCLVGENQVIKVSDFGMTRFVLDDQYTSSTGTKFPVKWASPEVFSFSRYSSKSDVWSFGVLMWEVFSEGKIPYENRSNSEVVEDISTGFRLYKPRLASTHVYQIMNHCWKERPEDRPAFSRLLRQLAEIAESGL
Procedure: (§4) BTK assay: In vitro profiling protein kinases was performed using the “HotSpot” assay platform. Briefly, specific kinase/substrate pairs along with required cofactors were prepared in reaction buffer. Compounds were prepared as 10 mM stock solutions in DMSO. Compounds were delivered into the reaction, followed 15-20 minutes later by addition of a mixture of ATP (Sigma, St. Louis Mo.) and ^33P ATP (Perkin Elmer, Waltham Mass.) to a final concentration of 10 μM. Reactions were carried out at RT for 120 min, followed by spotting of the reactions onto P81 ion exchange filter paper (Whatman Inc., Piscataway, N.J.). Unbound phosphate was removed by extensive washing of filters in 0.75% Phosphoric acid. […] ICso values and curve fits were obtained using Prism (GraphPad Software). Buffer Conditions: 20 mM Hepes (pH 7.5), 10 mM MgCl2, 1 mM EGTA, 0.02% Brij35, 0.02 mg/mL BSA, 0.1 mM Na3VO4, 2 mM DTT, 1% DMSO.
Compounds of the invention were profiled in a 10 dose IC50 panel against BMX/ETK, ITK and TEC kinases, provided by Reaction Biology Corporation, applied to the BTK protocol provided in Example B1.

BTK = biological target: T5, BTK (Homo sapiens, UniProt Q06187); test: BTK kinase profiling, HotSpot radiometric assay (Reaction Biology); details: for inhibition at 0.1 µM: compound 0.1 μM, read-out: BTK @ 0.1 μM (% Inh); for inhibition at 0.1 µM / inhibition at 1 µM / inhibition at 0.01 µM: ATP 10 μM; for inhibition at 1 µM: compound 1 μM, read-out: BTK @ 1 μM (% Inh); for inhibition at 0.01 µM: compound 0.01 μM, read-out: BTK @ 0.01 μM (% Inh)
T5 construct: purchased Reaction Biology Corporation
T5 sequence (Q06187 whole entry): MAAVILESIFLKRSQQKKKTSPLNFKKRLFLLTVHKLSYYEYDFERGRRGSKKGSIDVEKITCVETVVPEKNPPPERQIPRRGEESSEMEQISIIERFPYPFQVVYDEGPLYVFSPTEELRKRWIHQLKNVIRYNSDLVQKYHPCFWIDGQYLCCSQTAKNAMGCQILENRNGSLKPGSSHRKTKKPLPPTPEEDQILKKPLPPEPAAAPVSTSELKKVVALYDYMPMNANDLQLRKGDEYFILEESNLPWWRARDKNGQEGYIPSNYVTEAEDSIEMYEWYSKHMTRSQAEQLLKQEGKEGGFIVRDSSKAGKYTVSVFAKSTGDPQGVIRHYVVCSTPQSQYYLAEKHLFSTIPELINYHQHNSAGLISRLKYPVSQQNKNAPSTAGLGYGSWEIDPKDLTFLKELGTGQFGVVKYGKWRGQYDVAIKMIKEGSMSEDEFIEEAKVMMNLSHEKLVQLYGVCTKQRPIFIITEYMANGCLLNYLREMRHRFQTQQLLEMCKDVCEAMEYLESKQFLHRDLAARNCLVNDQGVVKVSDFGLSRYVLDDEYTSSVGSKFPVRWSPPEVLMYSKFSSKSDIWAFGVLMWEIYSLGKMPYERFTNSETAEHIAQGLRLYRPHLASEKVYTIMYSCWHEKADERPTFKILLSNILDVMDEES
Procedure: as §1, §4

PI3Kδ [2] = biological target: T1, PI3Kδ; test: PI3Kδ kinase profiling, HTRF PIP3 displacement assay (Reaction Biology); details: ATP 10 μM; for inhibition at 0.1 µM: compound 0.1 μM, read-out: PI3Kδ @ 0.1 μM (% Inh); for inhibition at 0.01 µM: compound 0.01 μM, read-out: PI3Kδ @ 0.01 μM (% Inh)

T1 sequence (O00329 whole entry): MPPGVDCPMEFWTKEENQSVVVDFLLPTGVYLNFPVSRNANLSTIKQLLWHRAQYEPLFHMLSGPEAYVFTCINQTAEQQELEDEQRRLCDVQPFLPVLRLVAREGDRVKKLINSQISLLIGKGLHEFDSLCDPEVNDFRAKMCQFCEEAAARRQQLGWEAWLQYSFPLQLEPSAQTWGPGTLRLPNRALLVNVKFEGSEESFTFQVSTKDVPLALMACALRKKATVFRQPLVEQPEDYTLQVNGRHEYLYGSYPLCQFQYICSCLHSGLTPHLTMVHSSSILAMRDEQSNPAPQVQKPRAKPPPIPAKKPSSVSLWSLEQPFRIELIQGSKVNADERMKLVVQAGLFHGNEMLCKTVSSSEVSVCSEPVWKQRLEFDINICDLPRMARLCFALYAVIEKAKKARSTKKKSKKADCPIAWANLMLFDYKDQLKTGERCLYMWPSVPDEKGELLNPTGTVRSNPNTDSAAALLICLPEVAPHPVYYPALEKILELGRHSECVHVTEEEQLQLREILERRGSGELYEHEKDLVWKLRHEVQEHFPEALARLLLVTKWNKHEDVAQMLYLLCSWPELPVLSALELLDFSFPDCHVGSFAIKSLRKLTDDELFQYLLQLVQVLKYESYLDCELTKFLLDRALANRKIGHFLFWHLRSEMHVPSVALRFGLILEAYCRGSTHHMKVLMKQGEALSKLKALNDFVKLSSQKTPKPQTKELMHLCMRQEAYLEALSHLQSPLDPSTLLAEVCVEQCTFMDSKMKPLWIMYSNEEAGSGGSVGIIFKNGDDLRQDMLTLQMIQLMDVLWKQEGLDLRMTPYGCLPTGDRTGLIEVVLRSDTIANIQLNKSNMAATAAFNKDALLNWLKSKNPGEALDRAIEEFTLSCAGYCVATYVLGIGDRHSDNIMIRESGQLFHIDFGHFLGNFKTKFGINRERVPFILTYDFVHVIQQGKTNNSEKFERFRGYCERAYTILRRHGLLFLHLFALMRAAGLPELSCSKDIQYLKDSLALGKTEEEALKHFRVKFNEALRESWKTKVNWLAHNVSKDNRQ
T1 sequence (P27986 whole entry partner): as the sequence (P27986 whole entry partner, canonical isoform) above

| SMILES | IC50 (PI3Kδ [1]) | inhibition at 1 µM (PI3Kδ [1]) | inhibition at 0.3 µM (PI3Kβ) | inhibition at 0.3 µM (PI3Kγ) | inhibition at 0.3 µM (ITK) | IC50 (BTK) | inhibition at 0.1 µM (BTK) | inhibition at 1 µM (BTK) | inhibition at 0.1 µM (PI3Kδ [2]) | IC50 (PI3Kβ) | IC50 (PI3Kγ) | inhibition at 0.01 µM (BTK) | inhibition at 0.01 µM (PI3Kδ [2]) |
| --- | --- | --- | --- | --- | --- | --- | --- | --- | --- | --- | --- | --- | --- |
| C=CC(=O)N(CCn1nc(-c2cc(O)cc(F)c2)c2c(N)ncnc21)c1ccccc1 [Compound 2, N-(2-(4-amino-3-(3-fluoro-5-hydroxyphenyl)-1H-pyrazolo[3,4-d]pyrimidin-1-yl)ethyl)-N-phenylacrylamide] | 51.6 nM | – | 30.4% | -2.49% | 50.7% | 3.9 nM | 94.1% | – | 39.1% | 5.28 µM | 9.07 µM | – | – |
| C=CC(=O)N(CCn1nc(-c2cc(O)cc(F)c2)c2c(N)ncnc21)Cc1ccc(Cl)cc1 [Compound 12, N-{2-[4-amino-3-(3-fluoro-5-hydroxyphenyl)-1H-pyrazolo[3,4-d]pyrimidin-1-yl]ethyl}-N-[(4-chlorophenyl)methyl]prop-2-enamide] | 9.7 nM | – | 31.3% | 21.5% | 62.5% | 0.4 nM | 94.4% | – | 66.7% | – | – | 62.8% | 37.7% |
| Nc1ncnc2c1c(-c1cc(O)cc(F)c1)nn2CCNc1ccccc1 [Compound 1, 3-(4-amino-1-(2-(phenylamino)ethyl)-1H-pyrazolo [3,4-d]pyrimidin-3-yl)-5-fluorophenol] | 10 nM | – | 62% | 49.7% | 0.06% | 167 nM | – | – | – | – | – | – | – |
| C=CC(=O)N(CCn1nc(-c2cc(O)c(F)c(F)c2)c2c(N)ncnc21)Cc1ccc(Cl)cc1 [Compound 16, N-{2-[4-amino-3-(3,4-difluoro-5-hydroxyphenyl)-1H-pyrazolo[3,4-d]pyrimidin-1-yl]ethyl}-N-[(4-chlorophenyl)methyl]prop-2-enamide] | 12.4 nM | – | 25.2% | 14.6% | 8.93% | 2.7 nM | 93.8% | – | 73% | – | – | 63.4% | 48.3% |

The next lines start with the values.

| IC50 (PI3Kδ [1]) | inhibition at 1 µM (PI3Kδ [1]) | inhibition at 0.3 µM (PI3Kβ) | inhibition at 0.3 µM (PI3Kγ) | inhibition at 0.3 µM (ITK) | IC50 (BTK) | inhibition at 0.1 µM (BTK) | inhibition at 1 µM (BTK) | inhibition at 0.1 µM (PI3Kδ [2]) | IC50 (PI3Kβ) | IC50 (PI3Kγ) | inhibition at 0.01 µM (BTK) | inhibition at 0.01 µM (PI3Kδ [2]) | SMILES |
| --- | --- | --- | --- | --- | --- | --- | --- | --- | --- | --- | --- | --- | --- |
| 32 nM | 82.4% | 41% | 21.4% | 34.7% | 7.4 nM | 93.8% | 97.2% | 54.2% | – | – | – | – | C=CC(=O)N(CCn1nc(-c2cc(O)cc(F)c2)c2c(N)ncnc21)Cc1ccccc1F [Compound 11, N-[2-[4-amino-3-(3-fluoro-5-hydroxy-phenyl)pyrazolo[3,4-d]pyrimidin-1-yl]ethyl]-N-[(2-fluorophenyl)methyl]prop-2-enamide] |
| 12.8 nM | 89% | 16.3% | -3.88% | 30.5% | 3 nM | 95.4% | 98.3% | 67.2% | – | – | – | – | C=CC(=O)N(CCn1nc(-c2cc(O)cc(F)c2)c2c(N)ncnc21)Cc1ccc(F)cc1 [Compound 10, N-{2-[4-amino-3-(3-fluoro-5-hydroxyphenyl)-1H-pyrazolo [3,4-d]pyrimidin-1-yl]ethyl}-N-[(4-fluorophenyl)methyl]prop-2-enamide] |
| 13 nM | – | 45.8% | 34.9% | 10.2% | 3.7 nM | 94% | – | 70.3% | 3.41 µM | 10.5 µM | – | – | C=CC(=O)N(CCn1nc(-c2cc(O)cc(F)c2)c2c(N)ncnc21)Cc1ccccc1 [Compound 5, N-(2-(4-amino-3-(3-fluoro-5-hydroxyphenyl)-1H-pyrazolo[3,4-d]pyrimidin-1-yl)ethyl)-N-benzylacrylamide] |
